Experimental data from US4929736A, “Latent isocynate derivatives useful for deactivating enzymes” (Board of Trustees of the Wichita State University, priority 1986, dated 1990).

Legend:
[1] = tested on: Elastase-induced Emphysema in the Mouse; assay: Protection against elastase-induced emphysema in the mouse, lung histology; assay type: in vivo
Excerpt: (§1) Animal models of emphysema include intratracheal administration of an elastolytic protease (PPE, HLE or papain) to cause a slowly progressive, destructive lesion in the lung. These proteases induce a lesion that is evident in the first few hours.
(§2) The method used for in vivo evaluation involved injection of a test solution into the trachea, or directly into one bronchus. In general, the method of Hayes et al J. Pathol, 117, 1-14 (1975) was used. A fine teflon tubing was connected to a pipette and inserted into the trachea after the animals were lightly anesthetized by IP injection. The contents of the pipette were then ejected. […] It was further determined that instillation of 40 ug of PPE in the same volume causes an unambigous emphysematous lesion which is restricted to the instilled lobe. After 7 to 10 days to allow inflamation to subside, the animals were sacrificed followed by exsanguination via the descending aorta. PPE was used rather than HLE to produce the lesion because emphysema developes over a much shorter period of time. Emphysema then was induced under acute condition so that the effects of the compounds tested could be investigated under the time constraints of a laboratory procedure. PPE with an animal model has been used in research in the past to study other, unrelated, inhibitors. (Bergeson, S. H. et al., European Patent No. 0189305 (1986).
In view of the fact that two tenths umoles of inhibitor is 100 times of the amount of the inhibitor necessary to inhibit the 40 ug of elastase in vitro, dosages were kept in the range of 1 to 10 umoles of inhibitor.
*Elastase: 20 ul containing 40 ug pancreatic elastase
As noted above, the method of in vivo testing is a modification of that of Hayes et al. However, the test solutions are inserted past the vocal chords into one bronchus by resistance. It was established initially that 20 ul of a solution of PPE (2 milligrams per milliter in saline) would create a reliable and unambigous emphysematous lesion. It should also be noted that the animals were scored for the presence of absence of such a lesion in any lobe without regard to the severity of the lesion.

[2] = molecular target: T1, Human leukocyte elastase (HLE) (Homo sapiens, UniProt P08246); assay: Spectrophotometric assay of HLE inactivation (in vitro); assay type: biochemical
T1 construct: purchased Elastin Products, St. Louis, Mo
T1 sequence (P08246 30-267): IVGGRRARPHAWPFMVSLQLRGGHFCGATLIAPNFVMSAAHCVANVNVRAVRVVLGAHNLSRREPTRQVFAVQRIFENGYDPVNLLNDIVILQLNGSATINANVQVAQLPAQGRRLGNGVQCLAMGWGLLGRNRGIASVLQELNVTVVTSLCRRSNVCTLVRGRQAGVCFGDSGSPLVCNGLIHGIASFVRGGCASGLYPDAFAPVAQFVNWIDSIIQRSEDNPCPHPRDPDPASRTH
Method: The appropriate amount of inhibitor in acetonitrile was mixed with PPE in phosphate buffer solution and placed in a constant temperature bath. Aliquots were withdrawn at different time intervals and transferred to a cuvette containing 100 uL of substrate, 140 uL of acetonitrile, and 2 mL of phosphate buffer, pH 6.5. After incubating for 30 seconds, the absorbance change was monitored for two minutes at 347.5 nm. […] Controlled reactions for 100% PPE activity were run in the presence of acetonitrile. A similar procedure was followed for HLE.
The reaction of an irreversible inhibitor with PPE and HLE may be illustrated by the scheme shown below: [drawing 5] where EI is the noncovalently bound enzyme-inactivator complex and E-I is the final product with the inhibitor covalently bound to the enzyme. The kinetics data were analyzed according to known procedures. The apparent pseudo-first-order inactivation rate constants were determined from the slopes of semilogarithmic plots of enzymatic activity remaining versus time using the following equation: [formula] where Et /EO is the amount of active enzyme remaining after time "t".
The assay procedure used was the procedure identified relative to the tests above in Table I.
(kobsd) were determined by plotting in [E]t /[E]o vs time.

[3] = tested on: PPE-induced emphysema in ICR mice; assay: Simultaneous intratracheal instillation of PPE with inhibitor, emphysema induction; assay type: in vivo, mouse; conditions: for Emphysema: 10 days
Excerpt: as §1, §2
Animals were also used to evaluate the effect of simultaneous intratracheal installation of PPE with the above inhibitor compound. The ICR mice in this experiment were used to evaluate the effect of the inhibitor in preventing emphysema induction. Table IX below illustrates the results of these tests:
All animals were sacrificed ten days after instillation.

[4] = tested on: ICR mice; assay: Tolerance of mice to IP or IT injection of inhibitor; assay type: in vivo, mouse; conditions: all treatments of Table VIII
Excerpt: as §1
as §2, with “PPE with an animal model has been used in research in the past to study other, unrelated, inhibitors. (Bergeson, S. H. et al., European Patent No. 0189305 (1986).” left out
Initially, the tolerance of 30-40 gram male ICR mice to intraperitoneal (IP) or intratracheal (IT) injection of inhibitor (Compound 5, Table I) was evaluated.

[5] = molecular target: Porcine pancreatic elastase (PPE) (Sus scrofa, UniProt P00772); assay: Spectrophotometric assay of PPE inactivation (in vitro); assay type: biochemical; conditions: two tenths umoles
[6] = tested on: thromboxane synthetease; conditions: cited from earlier work
[7] = 1 umole, simultaneous administration, n=4
[8] = 5 umoles, 30 min, then elastase, n=3
[9] = 10 umoles, 1 hr, then elastase, n=7
[10] = 10 umoles, 2 hr, then elastase, n=6
[11] = 10 umoles, 3 hr, then elastase, n=2

Chain of Porcine pancreatic elastase (PPE) (P00772 27-266): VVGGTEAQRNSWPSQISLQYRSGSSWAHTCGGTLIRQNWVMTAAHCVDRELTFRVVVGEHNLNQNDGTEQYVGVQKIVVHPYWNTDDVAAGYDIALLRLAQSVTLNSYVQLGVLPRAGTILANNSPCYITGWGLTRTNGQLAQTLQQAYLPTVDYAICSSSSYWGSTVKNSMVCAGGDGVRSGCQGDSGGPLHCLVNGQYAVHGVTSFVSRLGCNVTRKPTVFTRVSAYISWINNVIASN

CCC[C@H](NC(=O)n1ccnc1)C(=O)OC [Compound 5, Table I, L-N-(Imidazol-1-ylcarbonyl)norvaline Methyl Ester]
Mouse Lung Histology, Emphysematous [1, 7]: 0
Mouse Lung Histology, Normal [1, 7]: 4
Mouse Lung Histology, Emphysematous [1, 8]: 0
Mouse Lung Histology, Normal [1, 8]: 3
Mouse Lung Histology, Emphysematous [1, 9]: 5
Mouse Lung Histology, Normal [1, 9]: 2
Mouse Lung Histology, Emphysematous [1, 10]: 6
Mouse Lung Histology, Normal [1, 10]: 0
Mouse Lung Histology, Emphysematous [1, 11]: 2
Mouse Lung Histology, Normal [1, 11]: 0
Mouse Lung Histology, Emphysematous ([1]; 10 umoles, no elastase, n=7): 0
Mouse Lung Histology, Normal ([1]; 10 umoles, no elastase, n=7): 7
tolerance of inhibitor doses ([1]; all mice, all doses): all mice treated tolerated all doses
effect on PPE in the animal model (in words) ([1]; mouse, in vivo): block the effects of PPE
toxic side effects ([1]; mouse, in vivo): devoid of any toxic side effects
effectiveness against HLE relative to PPE ([2]; HLE vs PPE in vitro): about eighty
Inhibition of HLE (in words) ([2]; listed as L-norvaline azolide): highly effective
Emphysema ([3]; IT 1 umole inhibitor, no PPE): No
Emphysema ([3]; IT 34 ug PPE + 1 umole inhibitor): No
Prevention of emphysema (in words) ([3]; given simultaneously with PPE): prevented emphysema
Survival (in words) [4]: all animals survived
abnormal pulmonary pathology [4]: no animals showed abnormal pulmonary pathology
0.2 umoles inhibitor relative to amount necessary to inhibit 40 ug elastase in vitro [5]: 100 times

c1c[nH]cn1 [imidazole]
thromboxane synthetase inhibition (in words) [6]: inhibitor of thromboxane synthetease
